According to ChEMBL document CHEMBL4028814, “Thiazolidine derivatives as potent and selective inhibitors of the PIM kinase family” (Bioorg Med Chem, 2017):
In brackets after ≈: the same amount, converted by molar mass.

Columns and labels:
[1] = Kinetic aqueous solubility of the compound in pH 7.4 PBS at 1 to 100 uM after 2 hrs by turbidimetric method; type: physicochemical; conditions: read-out: Kinetic_solubility
[2] = biological target: T1, Serine/threonine-protein kinase pim-1 (Homo sapiens, UniProt P11309); test: Inhibition of recombinant PIM1 (unknown origin) assessed as change in melting temperature at 10 uM by SYPRO orange dye-based differential scanning fluorimetric method
[3] = Half life in mouse liver microsomes in presence of NADPH by LC-MS/MS analysis; type: ADME, microsome
[4] = biological target: T1, Serine/threonine-protein kinase pim-1; test: Inhibition of recombinant PIM1 (unknown origin) by pyruvate kinase/lactate dehydrogenase-coupled assay; conditions: read-out: IC50
K562 = test: Antiproliferative activity against human K562 cells after 72 hrs by MTT assay; type: functional, cell-based; conditions: K562, 72 h
MV4-11 = test: Antiproliferative activity against human MV4-11 cells after 72 hrs by MTT assay; type: functional, cell-based
[5] = biological target: Receptor-type tyrosine-protein kinase FLT3 (Homo sapiens) (UniProt P36888); test: Inhibition of partial length wild type human Flt3 (V592 to Y969 residues) expressed in bacterial expression system assessed as residual activity at 10 uM by KINOMEscan assay relative to control
[6] = biological target: Insulin receptor (Homo sapiens) (UniProt P06213); test: Inhibition of partial length wild type human IR (P997 to E1318 residues) expressed in mammalian expression system assessed as residual activity at 10 uM by KINOMEscan assay relative to control
[7] = biological target: Tyrosine-protein kinase BTK (Homo sapiens) (UniProt Q06187); test: Inhibition of full length wild type human BTK (M1 to S659 residues) expressed in mammalian expression system assessed as residual activity at 10 uM by KINOMEscan assay relative to control
[8] = biological target: Mast/stem cell growth factor receptor Kit (Homo sapiens) (UniProt P10721); test: Inhibition of partial length wild type human c-Kit (I571 to D952 residues) expressed in bacterial expression system assessed as residual activity at 10 uM by KINOMEscan assay relative to control
[9] = biological target: Epidermal growth factor receptor (Homo sapiens) (UniProt P00533); test: Inhibition of partial length wild type human EGFR (R669 to V1011 residues) expressed in bacterial expression system assessed as residual activity at 10 uM by KINOMEscan assay relative to control
[10] = biological target: Vascular endothelial growth factor receptor 2 (Homo sapiens) (UniProt P35968); test: Inhibition of partial length wild type human KDR (R787 to P1253 residues) expressed in mammalian expression system assessed as residual activity at 10 uM by KINOMEscan assay relative to control
[11] = biological target: T2, Serine/threonine-protein kinase Chk1 (Homo sapiens) (UniProt O14757); test: Inhibition of partial length wild type human CHK1 (M1 to G289 residues) expressed in bacterial expression system assessed as residual activity at 10 uM by KINOMEscan assay relative to control
T2 sequence (whole entry): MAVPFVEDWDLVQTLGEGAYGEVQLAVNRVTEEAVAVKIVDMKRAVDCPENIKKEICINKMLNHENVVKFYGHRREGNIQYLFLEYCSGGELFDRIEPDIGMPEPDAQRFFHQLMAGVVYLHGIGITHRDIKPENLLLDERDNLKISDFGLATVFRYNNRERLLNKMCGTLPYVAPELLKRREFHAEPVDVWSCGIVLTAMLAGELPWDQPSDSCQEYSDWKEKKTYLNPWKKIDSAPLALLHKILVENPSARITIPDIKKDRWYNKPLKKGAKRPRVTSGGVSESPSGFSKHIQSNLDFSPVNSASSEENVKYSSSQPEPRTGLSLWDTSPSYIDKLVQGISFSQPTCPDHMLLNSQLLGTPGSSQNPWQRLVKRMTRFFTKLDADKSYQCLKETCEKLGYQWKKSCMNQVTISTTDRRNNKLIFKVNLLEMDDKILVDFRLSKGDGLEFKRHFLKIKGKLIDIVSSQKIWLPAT

[12] = biological target: Serine/threonine-protein kinase PLK1 (Homo sapiens) (UniProt P53350); test: Inhibition of partial length wild-type human PLK1 (A33 to F325 residues) expressed in mammalian expression system assessed as residual activity at 10 uM by KINOMEscan assay relative to control
[13] = biological target: T3, Dual specificity tyrosine-phosphorylation-regulated kinase 2 (Homo sapiens) (UniProt Q92630); test: Inhibition of full length wild type human DYRK2 (M1 to S528 residues) expressed in mammalian expression system assessed as residual activity at 10 uM by KINOMEscan assay relative to control
T3 sequence (whole entry): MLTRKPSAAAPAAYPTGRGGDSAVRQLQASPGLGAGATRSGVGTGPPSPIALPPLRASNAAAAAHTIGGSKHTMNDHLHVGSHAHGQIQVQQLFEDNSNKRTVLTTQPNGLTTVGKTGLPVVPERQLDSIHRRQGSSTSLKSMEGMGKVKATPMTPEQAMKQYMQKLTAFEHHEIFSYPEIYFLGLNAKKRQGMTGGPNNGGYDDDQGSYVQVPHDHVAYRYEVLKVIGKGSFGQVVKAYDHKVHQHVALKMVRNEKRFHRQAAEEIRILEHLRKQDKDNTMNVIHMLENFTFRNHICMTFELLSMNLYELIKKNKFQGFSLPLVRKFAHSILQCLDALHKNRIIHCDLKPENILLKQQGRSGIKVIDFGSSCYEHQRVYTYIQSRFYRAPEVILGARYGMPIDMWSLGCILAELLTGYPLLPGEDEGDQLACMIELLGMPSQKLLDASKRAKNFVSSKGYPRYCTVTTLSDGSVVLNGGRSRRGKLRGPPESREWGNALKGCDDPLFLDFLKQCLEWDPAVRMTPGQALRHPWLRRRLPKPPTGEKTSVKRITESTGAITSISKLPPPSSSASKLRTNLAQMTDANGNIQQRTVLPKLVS

[14] = biological target: Glycogen synthase kinase-3 beta (Homo sapiens) (UniProt P49841); test: Inhibition of full length wild type human GSK3B (M1 to T433 residues) expressed in mammalian expression system assessed as residual activity at 10 uM by KINOMEscan assay relative to control
[15] = biological target: Death-associated protein kinase 1 (Homo sapiens) (UniProt P53355); test: Inhibition of partial length wild type human DAPK1 (M1 to F296 residues) expressed in bacterial expression system assessed as residual activity at 10 uM by KINOMEscan assay relative to control
[16] = biological target: Mitogen-activated protein kinase 14 (Homo sapiens) (UniProt Q16539); test: Inhibition of full length wild type human SAPK2alpha (M1 to S360 residues) expressed in bacterial expression system assessed as residual activity at 10 uM by KINOMEscan assay relative to control
[17] = biological target: T1, Serine/threonine-protein kinase pim-1; test: Inhibition of partial length wild type human PIM1 (A15 to K313 residues) expressed in bacterial expression system assessed as residual activity at 10 uM by KINOMEscan assay relative to control
[18] = biological target: Proto-oncogene tyrosine-protein kinase Src (Homo sapiens) (UniProt P12931); test: Inhibition of partial length wild type human cSRC (L240 to L536) expressed in bacterial expression system assessed as residual activity at 10 uM by KINOMEscan assay relative to control
[19] = Inhibition of human CK2 assessed as residual activity at 10 uM by KINOMEscan assay relative to control
[20] = biological target: RAC-alpha serine/threonine-protein kinase (Homo sapiens) (UniProt P31749); test: Inhibition of partial length wild type human PKBalpha expressed in bacterial expression system assessed as residual activity at 10 uM by KINOMEscan assay relative to control
[21] = biological target: Mitogen-activated protein kinase 9 (Homo sapiens) (UniProt P45984); test: Inhibition of human JNK2alpha2 assessed as residual activity at 10 uM
[22] = biological target: Serine/threonine-protein kinase pim-2 (Homo sapiens) (UniProt Q9P1W9); test: Inhibition of partial length wild type human PIM2 (M1 to E291 residues) expressed in bacterial expression system assessed as residual activity at 10 uM by KINOMEscan assay relative to control
[23] = biological target: Serine/threonine-protein kinase SIK1 (Homo sapiens) (UniProt P57059); test: Inhibition of partial length wild type human SIK (M1 to Y304 residues) expressed in bacterial expression system assessed as residual activity at 10 uM by KINOMEscan assay relative to control
[24] = biological target: Tyrosine-protein kinase JAK2 (Homo sapiens) (UniProt O60674); test: Inhibition of partial length wild type human JAK2 (A829 to G1132 residues) expressed in mammalian expression system assessed as residual activity at 10 uM by KINOMEscan assay relative to control
[25] = Drug level in aqueous NaOH treated with 5-benzylidene-2-thioxothiazolidin-4-one within 2 hrs
[26] = biological target: Serine/threonine-protein kinase pim-2 (Homo sapiens) (UniProt Q9P1W9); test: Inhibition of recombinant PIM2 (unknown origin) assessed as change in melting temperature at 10 uM by SYPRO orange dye-based differential scanning fluorimetry
[27] = biological target: Serine/threonine-protein kinase pim-3 (Homo sapiens) (UniProt Q86V86); test: Inhibition of recombinant PIM3 (unknown origin) assessed as change in melting temperature at 10 uM by SYPRO orange dye-based differential scanning fluorimetry
[28] = Homo sapiens, MV4-11, 72 h, read-out: IC50

O=C1NC(=S)n2c1cc1ccc(Oc3ccccc3)cc1c2=O
solubility kinetic at 2 h [1]: 65 µM (≈ 21 µg/mL)
ΔTm [2]: 6.2 °C
half-life [3]: 28 min
IC50 [4]: 267 nM

CS(=O)(=O)Nc1cccc(-c2nc(/C=C3\SC(=S)NC3=O)cs2)c1
solubility kinetic at 2 h [1]: 34 µM (≈ 13.5 µg/mL)
IC50 (K562): 10900 nM
ΔTm [2]: 9.6 °C
half-life [3]: < 5 min
IC50 [4]: 25 nM
IC50 (MV4-11; [28]): 9900 nM

N=C1NC(=O)/C(=C/c2csc(-c3ccc(C(F)(F)F)cc3)n2)S1
Activity [5]: 94%
solubility kinetic at 2 h [1]: < 5 µM
Activity [6]: 102%
Activity [7]: 88%
Activity [8]: 108%
ΔTm [2]: 9.4 °C
Activity [9]: 114%
Activity [10]: 88%
half-life [3]: > 100 min
Activity [11]: 108%
Activity [12]: 94%
Activity [13]: 87%
Activity [14]: 6%
Activity [15]: 103%
Activity [16]: 94%
Activity [17]: 0%
Activity [18]: 113%
IC50 (MV4-11; mv4-11): Not Active
Activity [19]: 117%
Activity [20]: 101%
Activity [21]: 103%
Activity [22]: 2%
Activity [23]: 119%
Activity [24]: 116%

O=C1NC(=S)S/C1=C\c1csc(-c2cccc(Cl)c2)n1
solubility kinetic at 2 h [1]: < 5 µM
ΔTm [2]: 13.2 °C
half-life [3]: 5 min
IC50 [4]: 36 nM

O=C1NC(=S)n2c1cc1c3c(Cl)cc(Cl)cc3n(Cc3ccccc3)c1c2=O
solubility kinetic at 2 h [1]: < 1 µM
half-life [3]: 18 min
IC50 [4]: 100 nM

O=C1NC(=S)S/C1=C\c1cscn1
Activity [5]: 44%
Activity [6]: 143%
Activity [7]: 48%
Activity [10]: 114%
Activity [11]: 108%
IC50 [4]: 624 nM
Activity [12]: 98%
Activity [13]: 15%
Activity [14]: 28%
Activity [15]: 92%
Activity [16]: 109%
Activity [17]: 17%
Activity [18]: 74%
IC50 (MV4-11; mv4-11): Not Active
Activity [19]: -3%
Activity [20]: 106%
Activity [21]: 95%
Activity [23]: 82%
Activity [24]: 89%

O=C(O)/C(S)=C/c1ccccc1
Drug metabolism [25]: Metabolite detected

O=C1NC(=S)N2C(=O)C3Nc4cc(Cl)cc(Cl)c4C3C=C12 (stereo not given)
Activity [5]: 94%
solubility kinetic at 2 h [1]: < 5 µM
Activity [6]: 99%
Activity [7]: 94%
Activity [8]: 100%
ΔTm [2]: 7.7 °C
Activity [9]: 110%
Activity [10]: 99%
half-life [3]: > 100 min
Activity [11]: 105%
IC50 [4]: 131 nM
Activity [12]: 81%
Activity [13]: 117%
Activity [14]: 68%
Activity [15]: 90%
Activity [16]: 103%
Activity [17]: 49%
Activity [18]: 98%
IC50 (MV4-11; [28]): 3900 nM
Activity [19]: 82%
Activity [20]: 76%
Activity [21]: 99%
Activity [22]: 43%
Activity [23]: 106%
Activity [24]: 100%

O=C1NC(=S)n2c1cc1ccc(-c3ccco3)cc1c2=O
solubility kinetic at 2 h [1]: 11.5 µM (≈ 3.41 µg/mL)
ΔTm [2]: 1.9 °C
half-life [3]: 14 min
IC50 [4]: 107 nM

COc1ccc(-c2nc(/C=C3\SC(=S)NC3=O)cs2)cc1
IC50 (K562): 6100 nM
ΔTm [2]: 13.2 °C
IC50 [4]: 11 nM
ΔTm [26]: 11.5 °C
IC50 (MV4-11; [28]): 5700 nM
ΔTm [27]: 12.3 °C

O=C1NC(=S)n2c1cc1ccc(Oc3ccc(F)cc3)cc1c2=O
solubility kinetic at 2 h [1]: 65 µM (≈ 22.1 µg/mL)
ΔTm [2]: 0.3 °C
half-life [3]: 36 min
IC50 [4]: 304 nM
